Earlier results on one molecule are cited in article PMC9851200, “Multiparameter phenotypic screening for endogenous TFEB and TFE3 translocation identifies novel chemical series modulating lysosome function” (Autophagy, 2022).

SMILES strings stand for the structures.

What all share (design): method as in original PKIS2 published data
Series [1] addresses kinases (KINOMEscan panel) (Homo sapiens, UniProt P49760). Conditions: kinase CLK2; Published KINOMEscan; ref original PKIS2 published data; cited from earlier work.
Series [2] has as its target kinases (KINOMEscan panel) (Homo sapiens, UniProt Q14680). Conditions: kinase MELK; Published KINOMEscan; ref original PKIS2 published data; cited from earlier work.
Series [3] addresses T1, kinases (KINOMEscan panel) (Homo sapiens, UniProt Q13976).
T1 sequence (Q13976 1-671): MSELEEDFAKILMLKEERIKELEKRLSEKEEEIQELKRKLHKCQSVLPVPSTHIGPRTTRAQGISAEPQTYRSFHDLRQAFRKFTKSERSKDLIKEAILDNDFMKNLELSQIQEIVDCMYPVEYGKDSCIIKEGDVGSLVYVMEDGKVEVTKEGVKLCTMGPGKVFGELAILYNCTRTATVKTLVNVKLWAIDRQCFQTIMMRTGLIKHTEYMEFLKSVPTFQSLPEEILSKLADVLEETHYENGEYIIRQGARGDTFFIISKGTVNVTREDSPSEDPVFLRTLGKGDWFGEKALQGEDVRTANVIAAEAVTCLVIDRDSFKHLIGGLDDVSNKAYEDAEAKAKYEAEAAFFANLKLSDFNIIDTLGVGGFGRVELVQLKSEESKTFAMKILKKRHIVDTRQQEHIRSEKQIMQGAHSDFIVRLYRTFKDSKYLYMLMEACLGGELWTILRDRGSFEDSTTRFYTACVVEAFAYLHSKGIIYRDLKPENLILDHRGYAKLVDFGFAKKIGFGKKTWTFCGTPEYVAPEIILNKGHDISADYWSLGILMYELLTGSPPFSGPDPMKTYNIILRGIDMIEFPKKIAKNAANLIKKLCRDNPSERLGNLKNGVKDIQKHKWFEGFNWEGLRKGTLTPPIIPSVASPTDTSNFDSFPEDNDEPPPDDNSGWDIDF
To be noted: kinase PRKG1; Published KINOMEscan; ref original PKIS2 published data; cited from earlier work.

Series [4] concerns the target T2, kinases (KINOMEscan panel) (Homo sapiens, UniProt Q8TF76).
T2 sequence (Q8TF76 1-798): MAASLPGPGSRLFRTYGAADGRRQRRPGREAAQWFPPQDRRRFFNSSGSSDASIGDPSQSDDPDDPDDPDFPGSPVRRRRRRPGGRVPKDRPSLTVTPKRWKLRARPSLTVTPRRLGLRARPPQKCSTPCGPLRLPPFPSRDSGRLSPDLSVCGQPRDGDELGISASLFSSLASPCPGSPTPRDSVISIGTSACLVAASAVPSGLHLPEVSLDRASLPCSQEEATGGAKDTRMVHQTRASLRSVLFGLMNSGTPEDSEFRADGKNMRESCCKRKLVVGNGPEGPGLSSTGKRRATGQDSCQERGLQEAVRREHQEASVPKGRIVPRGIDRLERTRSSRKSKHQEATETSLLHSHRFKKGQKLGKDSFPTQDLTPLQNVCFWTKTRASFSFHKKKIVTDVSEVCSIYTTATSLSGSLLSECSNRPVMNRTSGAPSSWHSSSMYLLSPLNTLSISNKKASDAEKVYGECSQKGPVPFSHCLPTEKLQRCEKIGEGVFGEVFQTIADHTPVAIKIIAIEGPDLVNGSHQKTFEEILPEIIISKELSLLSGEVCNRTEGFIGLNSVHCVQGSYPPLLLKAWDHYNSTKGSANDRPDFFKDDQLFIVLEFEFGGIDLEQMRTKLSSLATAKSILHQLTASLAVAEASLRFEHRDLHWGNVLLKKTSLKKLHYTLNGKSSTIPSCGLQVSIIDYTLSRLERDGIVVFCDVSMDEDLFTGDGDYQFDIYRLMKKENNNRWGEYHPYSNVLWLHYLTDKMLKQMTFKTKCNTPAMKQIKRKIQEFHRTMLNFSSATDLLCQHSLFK
To be noted: HASPIN; Published KINOMEscan; ref original PKIS2 published data; cited from earlier work.

Series [5] has as its target kinases (KINOMEscan panel) (Homo sapiens, UniProt P48729). Conditions: CSNK1A1; Published KINOMEscan; ref original PKIS2 published data; cited from earlier work.
Series [6] has as its target T3, kinases (KINOMEscan panel) (Homo sapiens, UniProt Q9UF33).
T3 sequence (Q9UF33 23-1036): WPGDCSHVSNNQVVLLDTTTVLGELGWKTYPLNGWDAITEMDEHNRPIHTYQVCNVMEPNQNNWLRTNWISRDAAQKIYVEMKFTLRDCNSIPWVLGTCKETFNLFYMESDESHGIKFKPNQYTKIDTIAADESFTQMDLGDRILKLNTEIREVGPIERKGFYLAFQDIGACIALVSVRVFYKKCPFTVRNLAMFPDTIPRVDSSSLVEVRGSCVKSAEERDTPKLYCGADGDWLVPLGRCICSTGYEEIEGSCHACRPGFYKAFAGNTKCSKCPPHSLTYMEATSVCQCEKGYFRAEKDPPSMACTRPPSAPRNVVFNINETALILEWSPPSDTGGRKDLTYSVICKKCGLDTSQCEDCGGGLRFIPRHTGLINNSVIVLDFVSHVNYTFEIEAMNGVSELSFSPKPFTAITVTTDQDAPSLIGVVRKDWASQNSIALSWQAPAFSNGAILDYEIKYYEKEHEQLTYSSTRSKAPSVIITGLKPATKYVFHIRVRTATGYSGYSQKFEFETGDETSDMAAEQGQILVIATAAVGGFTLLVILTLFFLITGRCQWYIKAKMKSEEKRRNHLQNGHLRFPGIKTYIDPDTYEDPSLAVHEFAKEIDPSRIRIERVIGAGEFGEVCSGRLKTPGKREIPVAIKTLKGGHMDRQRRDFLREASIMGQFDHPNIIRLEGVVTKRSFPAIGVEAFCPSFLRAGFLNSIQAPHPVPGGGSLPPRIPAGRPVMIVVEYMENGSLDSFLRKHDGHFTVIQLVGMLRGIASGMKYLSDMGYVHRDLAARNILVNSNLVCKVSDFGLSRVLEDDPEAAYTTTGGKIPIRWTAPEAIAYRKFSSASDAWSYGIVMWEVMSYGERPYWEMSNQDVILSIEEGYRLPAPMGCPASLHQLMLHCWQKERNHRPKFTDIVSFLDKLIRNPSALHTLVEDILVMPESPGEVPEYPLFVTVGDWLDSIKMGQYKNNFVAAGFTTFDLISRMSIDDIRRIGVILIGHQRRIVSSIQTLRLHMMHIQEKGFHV
To be noted: kinase EPHA6; Published KINOMEscan; ref original PKIS2 published data; cited from earlier work.

kinases (KINOMEscan panel) (Homo sapiens, UniProt P49760), sequence (P49760 whole entry): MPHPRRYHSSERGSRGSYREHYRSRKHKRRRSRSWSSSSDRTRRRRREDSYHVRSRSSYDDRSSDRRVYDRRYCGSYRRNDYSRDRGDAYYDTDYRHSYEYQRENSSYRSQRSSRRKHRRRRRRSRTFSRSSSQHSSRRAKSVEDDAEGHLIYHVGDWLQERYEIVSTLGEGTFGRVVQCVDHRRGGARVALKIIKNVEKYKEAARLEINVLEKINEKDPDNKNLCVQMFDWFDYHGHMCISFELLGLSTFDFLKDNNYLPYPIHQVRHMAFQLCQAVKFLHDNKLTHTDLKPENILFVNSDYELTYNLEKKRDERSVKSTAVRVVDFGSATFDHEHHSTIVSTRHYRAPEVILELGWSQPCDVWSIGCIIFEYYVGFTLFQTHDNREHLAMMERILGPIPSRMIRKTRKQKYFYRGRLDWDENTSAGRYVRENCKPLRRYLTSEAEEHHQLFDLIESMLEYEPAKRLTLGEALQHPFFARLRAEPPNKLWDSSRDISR
kinases (KINOMEscan panel) (Homo sapiens, UniProt P48729), sequence (P48729 whole entry): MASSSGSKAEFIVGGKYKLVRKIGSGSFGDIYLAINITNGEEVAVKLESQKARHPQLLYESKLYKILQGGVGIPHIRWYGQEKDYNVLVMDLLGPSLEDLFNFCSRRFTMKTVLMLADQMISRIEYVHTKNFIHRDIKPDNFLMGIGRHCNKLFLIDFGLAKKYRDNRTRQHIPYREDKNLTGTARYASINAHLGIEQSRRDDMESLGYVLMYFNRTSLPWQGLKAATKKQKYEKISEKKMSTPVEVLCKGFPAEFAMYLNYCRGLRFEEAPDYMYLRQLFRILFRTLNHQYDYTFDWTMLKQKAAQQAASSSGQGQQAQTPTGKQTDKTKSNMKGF
kinases (KINOMEscan panel) (Homo sapiens, UniProt Q14680), sequence (Q14680 whole entry): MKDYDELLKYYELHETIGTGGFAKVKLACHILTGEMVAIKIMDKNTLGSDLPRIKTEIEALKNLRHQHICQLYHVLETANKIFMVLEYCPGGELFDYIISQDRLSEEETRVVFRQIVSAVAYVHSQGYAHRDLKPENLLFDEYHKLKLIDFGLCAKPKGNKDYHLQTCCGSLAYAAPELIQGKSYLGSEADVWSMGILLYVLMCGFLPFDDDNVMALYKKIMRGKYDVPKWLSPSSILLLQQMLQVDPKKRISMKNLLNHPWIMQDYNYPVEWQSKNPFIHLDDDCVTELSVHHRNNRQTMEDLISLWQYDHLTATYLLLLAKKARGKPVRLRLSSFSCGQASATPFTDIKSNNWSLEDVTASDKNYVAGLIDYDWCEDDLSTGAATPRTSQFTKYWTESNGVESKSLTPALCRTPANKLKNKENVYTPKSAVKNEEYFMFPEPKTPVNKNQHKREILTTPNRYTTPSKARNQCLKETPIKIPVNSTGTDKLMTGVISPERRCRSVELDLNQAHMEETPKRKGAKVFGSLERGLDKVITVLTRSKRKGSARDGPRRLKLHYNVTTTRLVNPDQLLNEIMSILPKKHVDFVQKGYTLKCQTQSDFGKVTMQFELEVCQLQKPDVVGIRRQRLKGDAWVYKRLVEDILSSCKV

Consider `Cc1cccc(-c2nc(Nc3ccncc3)c3ccccc3n2)n1` [NK215], for which, in series [1], the “KINOMEscan CLK2” value is on record as 8. Further, the “KINOMEscan MELK” value in series [2] is reported as 11. Further, in series [3], the “KINOMEscan PRKG1” value was 7. In series [4], the “KINOMEscan HASPIN” value is on record as 26. In addition, the “KINOMEscan CSNK1A1” value in series [5] is recorded as 46. The “KINOMEscan EPHA6” value in series [6] is on record as 0.
